Patent publication US10772885B2, “Composition for treating ocular diseases and methods of usage and making” (REYOUNG (SUZHOU) BIOLOGY SCIENCE & TECHNOLOGY CO., LTD., priority 2016, dated 2020)

Test system: CNV
Test: Laser photocoagulation-induced CNV in rats (FP/FFA, fluorescein leakage grading)
Type: in vivo, Brown Norway (BN) rats
Conditions: for Mean fluorescein leakage score vs model group / Ratio of grade 3 light spots vs model group: after treatment
Experimental: Specific-pathogen-free (SPF) grade Brown Norway (BN) rats, half male and half female, were treated with fundus laser photocoagulation, the date of which was counted as D0. At D8, 32 rats with similar areas of fluorescence leakage were selected, separated to 8 groups, with each group including 4 rats (half male and half female): • Group 1 is a model group without any treatment. • Group 2 is a positive control group, in which Conbercept was injected into the vitreous cavity of the rats' eyes at the dosage of 50 μg/eye and […]. • In group 3, both eyes of the rats were administered with nintedanib ethanesulfonate at the dosage of 125 μg/eye and 6 times per day from day 8 and day 15 (D8˜D15). • In group 4, both eyes of the rats were administered with nintedanib ethanesulfonate at the dosage of 25 μg/eye and 6 times per day from day 8 and day 15 (D8˜D15). • In group 5, both eyes of the rats were administered with nintedanib ethanesulfonate at the dosage of 5 μg/eye and 6 times per day from day 8 and day 15 (D8˜D15). • In group 6, both eyes of the rats were administered with nintedanib ethanesulfonate at the dosage of 2.5 μg/eye and 6 times per day from day 8 and day 15 (D8˜D15). • In group 7, both eyes of the rats were administered with nintedanib ethanesulfonate at the dosage of 0.5 μg/eye and 6 times per day from day 8 and day 15 (D8 D15). • In […], both eyes of the rats were administered with nintedanib ethanesulfonate at the dosage of 0.1 μg/eye and 6 times per day from day 8 and day 15 (D8 D15).
All rats were tested with fundus photography (“FP”) and fundus fluorescein angiography (“FFA”) one day before administration and 8 days after administration. The degree of CNV was graded according to the degree of fluorescence leakage. The results were used to evaluate the effect of nintedanib ethanesulfonate on rat CNV, the results of which are shown in FIG. 2.
The ratio is calculate by comparing the early-phase and last-phase fluorescein angiograms. The fluorescence leakage of the light spots was graded as follows: grade 0 (no leakage); grade 1 (slight leakage, leakage area is 1%-50% of the light spot size); grade 2 (moderate leakage, leakage area is 50%-100% of the light spot size); grade 3 (strong leakage, leakage area is larger than the light spot size). The ratios of light spots for certain grade were calculated as follows: Ratio of light spot (%)=(the number of light spot at certain grade÷the sum of four kinds of light spots)×100.
The mean fluorescein leakage score is calculated as follows: Mean fluorescein leakage score=[(number of grade 0 light spot×0)+(number of grade 1 light spot×1)+(number of grade 2 light spot×2)+(number of grade 3 light spot×3)]÷the sum of four kinds of light spots

[1] = groups 3-6 (125, 25, 5, 2.5 μg/eye)
[2] = positive control group, 50 μg/eye into the vitreous cavity

`COC(=O)c1ccc2c(c1)NC(=O)/C2=C(\Nc1ccc(N(C)C(=O)CN2CCN(C)CC2)cc1)c1ccccc1` [nintedanib ethanesulfonate] was tested, and the “Ratio of grade 1 light spots vs positive control group” value (all groups) was “increased”, the “Ratios of light spots, mean fluorescein leakage score and development of CNV” value (eye drops at 125, 25, 5, 2.5, 0.5 μg/eye) was “can inhibit” and the “Ratio of grade 1 light spots vs positive control group” value (fifth group (5 μg/eye), p≤0.05) was “significantly increased”. For the same compound, the “Leakage vs positive control group” value (group 5 (5 μg/eye), p≤0.05) was “significantly decreased”, the “Ratio of grade 3 light spots vs positive control group” value [1] was “lower” and the “Mean fluorescein leakage score vs model group” value [1] was “significantly decreased”. For the same compound, the “Ratio of grade 3 light spots vs model group” value [1] was “significantly decreased”, the “Ratio of grade 1 light spots vs model group” value (groups 3-6 (125, 25, 5, 2.5 μg/eye), p≤0.05) was “increased” and the Adverse reactions (groups 3 and 4 (125 and 25 μg/eye, 6 times per day, D8-D15), some of the animals) was “corneal opacity”. For the same compound, the “Inhibition of CNV in rats” value (groups 4-6 (25, 5, 2.5 μg/eye), 1 week after photocoagulation) was “significantly inhibited the CNV”, the “Mean fluorescein leakage score” value (groups 7 and 8 (0.5 and 0.1 μg/eye)) was “no statistically significant difference” and the Adverse reactions (other groups (5, 2.5, 0.5, 0.1 μg/eye, 6 times per day, D8-D15)) was “did not experience any significantly adverse reactions”. The “Ratio of the level 0 and level 2 light spot vs positive control group” value (other groups, p>0.05) was “no significant difference”, the “Inhibition of leakage vs positive control group” value (printed: first group) was “slightly stronger” and the “Leakage caused by CNV” value (rat, in vivo) was “can inhibit the leakage caused by CNV”.
In the case of “Conbercept: Monoclonal antibody or fusion protein targeting VEGF, developed by a Chinese company and launched in 2013; positive control”, the “Mean fluorescein leakage score vs model group” value [2] was “significantly decreased” and the “Ratio of grade 3 light spots vs model group” value [2] was “significantly decreased”.
